Experimental data taken from paper PMC11864979, “First-in-class ultralong-target-residence-time p38α inhibitors as a mitosis-targeted therapy for colorectal cancer” (Nature Cancer, 2025).
Where “and” joins values, the source holds several entries; their conditions need not be identical. Equal values may be shown once.

Tests used:
[1] = tested on: LS 174T; assay: cell viability in human CRC cell line LS 174T; assay type: cell-based; settings: for LS 174T Cell viability (%): 4 d
Method: The cells were cultured at 37 °C and 7% CO2 with RPMI (KAP^2D cells) or DMEM (other cell lines), supplemented with 10% FBS and penicillin–streptomycin. […] No commonly misidentified cell lines were used. Mycoplasma contamination was excluded by a PCR-based analysis.

[2] = tested on: COLO 205; assay: cell viability in human CRC cell line COLO 205; assay type: cell-based; settings: for COLO 205 Cell viability (%): 4 d
Method: (§1) To generate KAP^2D cells, KAP organoids were isolated from Matrigel, fragmented by mechanical dissociation and plated without any extracellular matrix on common cell culture dishes. Phoenix-Eco packaging cells (CRL-3214), HCT-15 (CCL-225), HCT 116 (CCL-247), COLO 205 (CCL-222), LS 174T (CL-188), RKO (CRL-2577) and HT-29 (HTB-38) were obtained from the American Type Culture Collection. The cells were cultured at 37 °C and 7% CO2 with RPMI (KAP^2D cells) or DMEM (other cell lines), supplemented with 10% FBS and penicillin–streptomycin. KAP^2D cells were authenticated using PCR (Kras locus and Trp53 locus). Phoenix-Eco packaging cells and HCT-15, HCT 116, COLO 205, LS 174T, RKO and HT-29 cells were authenticated by the provider using short tandem repeat profiling. No commonly misidentified cell lines were used. Mycoplasma contamination was excluded by a PCR-based analysis.
(§2) For in vitro treatment studies, organoids were mechanically dissociated and digested using TrypLE supplemented with 100 µg ml^−1 DNaseI and 10.5 µM Y-27632 dihydrochloride (Invitrogen) at 37 °C. A total of 1,000–2,000 single cells were plated per well in white 96-well plates (Greiner) in culture medium containing 10% GFR Matrigel or Cultrex BME. The treatment with doxycycline (5 µg ml^−1), pharmacological inhibitors or corresponding volumes of DMSO was started 24 h after plating. Doxycycline was obtained from Sigma-Aldrich. […] Cell viability was measured by means of CellTiter-Glo 3D or CellTiter-Glo 2.0 reagent (Promega) according to the manufacturers’ instructions and the Infinite M Plex reader (Tecan, i-control version 3.9.1 software). Results were normalized to vehicle (DMSO) or to shNC. For cell-doubling assays, the cell number was quantified at the corresponding time points using Guava EasyCyte flow cytometer (Luminex, CytoSoft v5.2 software).

[3] = tested on: PDO10; assay: cell viability in patient-derived CRC organoids PDO10; assay type: cell-based, human
Method: as §2

[4] = tested on: HCT 116; assay: cell viability in human CRC cell line HCT 116; assay type: cell-based; settings: for HCT 116 Cell viability (%): 4 d
Method: as §1, §2

[5] = tested on: PDO9; assay: cell viability in patient-derived CRC organoids PDO9; assay type: cell-based, human
Method: as §2

[6] = tested on: PDO14; assay: cell viability in patient-derived CRC organoids PDO14; assay type: cell-based, human
Method: as §2

[7] = tested on: KAP organoids; assay: cell viability in KAP organoids (CellTiter-Glo); assay type: cell-based, mouse; settings: replicates
In short: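 Organoids dissociated to single cells, 1,000–2,000 per well in medium with 10% GFR Matrigel or Cultrex BME; inhibitors or DMSO added 24 h after plating. Viability by CellTiter-Glo 3D or 2.0 luminescence, normalized to DMSO vehicle or shNC.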

## O=C1c2ccc(Nc3ccc(F)cc3F)cc2CCc2ccc(OC[C@H](O)CO)cc21 [SKL, skepinone-L, reference compound]
[1]; 0.0137 µM
  LS 174T Cell viability (%): 99.40% and 93.05% and 101.28% and 92.22%
[1]; 0.0412 µM
  LS 174T Cell viability (%): 92.09% and 86.77% and 91.37% and 88.68% and 85.53%
[1]; 0.1235 µM
  LS 174T Cell viability (%): 82.00% and 78.88% and 87.71% and 84.96%
[1]; 0.3704 µM
  LS 174T Cell viability (%): 80.28% and 77.65% and 86.62% and 87.42% and 86.17%
[1]; 1.1111 µM
  LS 174T Cell viability (%): 91.92% and 90.66% and 93.51% and 91.38% and 95.21%
[1]; 3.3333 µM
  LS 174T Cell viability (%): 99.97% and 97.60% and 100.77% and 96.22% and 98.37%
[1]; 10.0000 µM
  LS 174T Cell viability (%): 102.64% and 93.49% and 96.83% and 90.78% and 93.45%
[1]; Homo sapiens, LS174T, 96 h, read-out: LS 174T Cell viability (%), 0.0137 µM, 4 d
  viability at 0.0137 µM: 100%
[1]; Homo sapiens, LS174T, 96 h, read-out: LS 174T Cell viability (%), 0.0412 µM, 4 d
  viability at 0.0412 µM: 94.4%
[1]; Homo sapiens, LS174T, 96 h, read-out: LS 174T Cell viability (%), 0.1235 µM, 4 d
  viability at 0.1235 µM: 92.9%
[1]; Homo sapiens, LS174T, 96 h, read-out: LS 174T Cell viability (%), 0.3704 µM, 4 d
  viability at 0.3704 µM: 89%
[1]; Homo sapiens, LS174T, 96 h, read-out: LS 174T Cell viability (%), 1.1111 µM, 4 d
  viability at 1.1111 µM: 102%
[1]; Homo sapiens, LS174T, 96 h, read-out: LS 174T Cell viability (%), 3.3333 µM, 4 d
  viability at 3.3333 µM: 107%
[1]; Homo sapiens, LS174T, 96 h, read-out: LS 174T Cell viability (%), 10.0000 µM, 4 d
  viability at 10 µM: 98.7%
[2]; 0.0137 µM
  COLO 205 Cell viability (%): 96.45% and 96.38% and 97.30% and 129.19% and 99.27% and 94.84%
[2]; 0.0412 µM
  COLO 205 Cell viability (%): 127.57% and 100.82% and 92.20% and 93.68% and 91.56% and 87.30%
[2]; 0.1235 µM
  COLO 205 Cell viability (%): 118.98% and 94.94% and 87.73% and 92.65% and 90.17% and 91.06%
[2]; 0.3704 µM
  COLO 205 Cell viability (%): 128.00% and 91.92% and 96.35% and 88.32% and 91.46% and 92.15%
[2]; 1.1111 µM
  COLO 205 Cell viability (%): 104.82% and 92.26% and 92.51% and 87.03% and 84.46% and 82.14%
[2]; 3.3333 µM
  COLO 205 Cell viability (%): 118.94% and 101.69% and 108.96% and 89.84% and 86.56% and 82.40%
[2]; 10.0000 µM
  COLO 205 Cell viability (%): 88.40% and 89.99% and 81.09% and 75.75% and 75.52%
[2]; Homo sapiens, COLO 205, 96 h, read-out: COLO 205 Cell viability (%), 10.0000 µM, 4 d
  viability at 10 µM: 86.3%
[3]; Homo sapiens, 96 h, read-out: Cell viability (%), PDO10, 0.5 µM, 4 d
  viability at 0.5 µM: 90.5%
[3]; Homo sapiens, 96 h, read-out: Cell viability (%), PDO10, 1 µM, 4 days
  viability at 1 µM: 94.7%
[3]; PDO10, 0.5 µM, 4 d, 0.5 µM
  Cell viability (%): 87.26% and 98.21%
[3]; PDO10, 1 µM, 4 days, 1 µM
  Cell viability (%): 92.67% and 102.90%
[4]; 0.0137 µM
  HCT 116 Cell viability (%): 82.53% and 93.66% and 88.98% and 84.63%
[4]; 0.0412 µM
  HCT 116 Cell viability (%): 87.30% and 84.90% and 78.78% and 77.22% and 83.29%
[4]; 0.1235 µM
  HCT 116 Cell viability (%): 92.74% and 88.80% and 81.62% and 82.67% and 87.37%
[4]; 0.3704 µM
  HCT 116 Cell viability (%): 94.27% and 95.66% and 82.63% and 82.17%
[4]; 1.1111 µM
  HCT 116 Cell viability (%): 100.75% and 99.43% and 96.05% and 80.80% and 79.61% and 91.28%
[4]; 3.3333 µM
  HCT 116 Cell viability (%): 95.32% and 96.31% and 81.21% and 79.37% and 87.78%
[4]; 10.0000 µM
  HCT 116 Cell viability (%): 90.67% and 87.54% and 88.22% and 75.98% and 77.27% and 105.12%
[4]; Homo sapiens, HCT-116, 96 h, read-out: HCT 116 Cell viability (%), 0.0137 µM, 4 d
  viability at 0.0137 µM: 85.5%
[4]; Homo sapiens, HCT-116, 96 h, read-out: HCT 116 Cell viability (%), 0.0412 µM, 4 d
  viability at 0.0412 µM: 90.7%
[4]; Homo sapiens, HCT-116, 96 h, read-out: HCT 116 Cell viability (%), 0.1235 µM, 4 d
  viability at 0.1235 µM: 93.8%
[4]; Homo sapiens, HCT-116, 96 h, read-out: HCT 116 Cell viability (%), 0.3704 µM, 4 d
  viability at 0.3704 µM: 94.8%
[4]; Homo sapiens, HCT-116, 96 h, read-out: HCT 116 Cell viability (%), 3.3333 µM, 4 d
  viability at 3.3333 µM: 96.3%
[5]; Homo sapiens, 96 h, read-out: Cell viability (%), PDO9, 0.5 µM, 4 d
  viability at 0.5 µM: 92%
[5]; PDO9, 0.5 µM, 4 d, 0.5 µM
  Cell viability (%): 97.83% and 101.86%
[5]; PDO9, 1 µM, 4 days, 1 µM
  Cell viability (%): 97.80% and 79.73% and 102.56%
[6]; Homo sapiens, 96 h, read-out: Cell viability (%), PDO14, 0.5 µM, 4 d
  viability at 0.5 µM: 104%
[6]; Homo sapiens, 96 h, read-out: Cell viability (%), PDO14, 1 µM, 4 days
  viability at 1 µM: 100%
[6]; PDO14, 0.5 µM, 4 d, 0.5 µM
  Cell viability (%): 101.08% and 101.64%
[6]; PDO14, 1 µM, 4 days, 1 µM
  Cell viability (%): 109.63% and 109.64%
[7]; Fig. 1g, 0.5 µM
  Cell viability (%): 97.57% and 86.81% and 127.06%
[7]; Fig. 1g, 1 µM
  Cell viability (%): 93.70% and 102.05% and 122.58%
[7]; Fig. 2b, compound screen
  Cell viability (%): 78.66% and 92.01% and 89.54%
[7]; Fig. 1d, 0.5 µM
  Cell viability (%): 86.70% and 72.97%
